Test system: not listed separately
Experiment: Inhibition of TPA-stimulated release of HB-EGF-AP fusion protein from HT-1080 transfectant
Type: cell-based
Conditions: Homo sapiens, 1 h, 60 nM TPA for 60 min, AP activity of culture supernatant at 405 nm
Protocol: Human fibrosarcoma HT-1080 transfectant expressing fusion protein of HB-EGF and human placental alkaline phosphatase (AP) were used for following tests.
The cultured transfectant was treated with Trypsin-EDTA solution, and suspended in Minimum Essential Medium without phenol red; supplemented with 10% FCS(hereinafter referred to as MEM) at the concentration of 1.0×10^5 cells/ml. Each 0.2 ml of the cell suspension was dispensed into individual wells of 96 well microplate, and incubated overnight in a CO2 incubator at 37° C. After the incubation, the culture supernatant was removed by suction and the wells were washed with 0.2 ml/well of phosphate buffered saline. The cells were pretreated with 0.1 ml/well of the test compound solution [dimethyl sulfoxide (hereinafter referred to as DMSO) solution was diluted to 100 times with MEM] for 30 min in a CO2 incubator at 37° C. Then the culture supernatant was removed by suction and cells were treated with 0.2 ml/well of TPA solution (120 μM of DMSO solution was diluted to 60 nM with MEM) containing the same concentration of the compound as pretreatment for 60 min in a CO2 incubator at 37° C. The cells pretreated with MEM and incubated with only the TPA solution containing no test compound were used as control.
After these treatments, each 0.1 ml of culture supernatant collected from each well and 0.1 ml of MEM as background were transferred to individual wells of new 96 well microplate and incubated at 65° C. for 10 min after plate sealing to inactivate endogenous AP in MEM and cells. 0.1 ml of the substrate solution (prepared by diluting an aqueous 100 mg/ml p-nitrophenyl phosphate solution prepared previously 100 times with 0.01% magnesium chloride/1 M diethanolamine before use) for AP was added to each well and incubated for 120 minutes at room temperature in the dark. The absorbance at a wavelength of 405 nm of each well was measured using a microplate reader.

In order of rising IC50:
1. O=C(NO)[C@H]1[C@@H](O)[C@H](O)[C@H](O)CN1S(=O)(=O)c1ccc(Oc2ccccc2)cc1 [Compound e, (2R,3R,4R,5R)-3,4,5-trihydroxy-1-(4′-phenoxybenzenesulfonyl)-piperidine-2-carboxylic acid hydroxamide]  340 nM
2. O=C(NO)[C@H]1[C@@H](O)[C@H](O)[C@@H](O)CN1S(=O)(=O)c1ccc(Oc2ccccc2)cc1 [Compound c, (2R,3R,4R,5S)-3,4,5-trihydroxy-1-(4′-phenoxybenzenesulfonyl)-piperidine-2-carboxylic acid hydroxamide]  350 nM
3. CCOCCOc1ccc(S(=O)(=O)N2C[C@H](O)[C@@H](O)[C@H](O)[C@@H]2C(=O)NO)cc1 [Compound b, (2R,3R,4R,5S)-1-(4′-ethoxyethoxy-benzenesulfonyl)-3,4,5-trihydroxy-piperidine-2-carboxylic acid hydroxamide]  450 nM
4. COc1ccc(S(=O)(=O)N2C[C@H](O)[C@@H](O)[C@H](O)[C@@H]2C(=O)NO)cc1 [Compound a, (2R,3R,4R,5S)-3,4,5-trihydroxy-1-(4′-methoxybenzenesulfonyl)-piperidine-2-carboxylic acid hydroxamide]  610 nM
5. COc1ccc(S(=O)(=O)N2C[C@H](O)[C@@H](O)[C@@H](O)[C@@H]2C(=O)NO)cc1 [Compound d, (2R,3S,4R,5S)-3,4,5-trihydroxy-1-(4′-methoxybenzenesulfonyl)-piperidine-2-carboxylic acid hydroxamide]  1600 nM

Test system: epidermal hyperplasia in male BALB/c mice
Experiment: TPA-induced epidermal hyperplasia on mouse dorsal skin (epidermal thickness)
Type: in vivo
Conditions: topical application in acetone 5 minutes, 24 hours and 48 hours after TPA; skin excised at 72 hours; FIG. 1
Protocol: After backs of male BALB/c mice were shaved, 10 μL of a TPA-acetone solution (0.1 mM) was applied to the dorsal skin surface in an area of about 1 cm^2. In the medicine-treated group, a volume of 20 μL of a solution prepared by dissolving the test compound in acetone was applied to the same area 5 minutes, 24 hours and 48 hours after TPA application. In the non-treated group, only TPA was applied. In the control group, acetone was applied instead of the TPA-acetone solution.
The mice were sacrificed and the skin tissues were excised 72 hours after TPA application. Then the tissues were fixed with formalin, the vertical sections including the center of the TPA- or acetone-treated area were prepared and embedded in paraffin according to the conventional method. And they were stained by hematoxylin-eosin after removing paraffin. The epidermal thickness was measured using a microscope.
In FIG. 1, the numeral in the ordinate represents the epidermal thickness (μm). A bar graph of TPA (-) represents the epidermal thickness of the control group and a bar graph of TPA represents the epidermal thickness of the non-treated group. The respective bar graphs of 1, 10 and 100 denote the epidermal thickness of the group wherein the test compound is administered at a dose of 1, 10 and 100 (μg/wound) of each test compound. […]

For `O=C(NO)[C@H]1[C@@H](O)[C@H](O)[C@@H](O)CN1S(=O)(=O)c1ccc(Oc2ccccc2)cc1` [Compound c, (2R,3R,4R,5S)-3,4,5-trihydroxy-1-(4′-phenoxybenzenesulfonyl)-piperidine-2-carboxylic acid hydroxamide], the “hyperplasia inhibitory activity (epidermal thickness)” value was “hyperplasia inhibitory activity”.

— patent US20050137221A1, “Novel azasugar derivative and drug containing the same as the active ingredient” (priority 2002, published 2005)
